Measured values: patent US20080039453A1, “Enantiomerically pure R-etifoxine, pharmaceutical compositions thereof and methods of their use” (priority 2006, published 2008)

What was measured:
[1] = system: mouse formalin pain model; assay: Mouse formalin pain model (late phase licking); assay type: in vivo; settings: male NSA mice, 60 mg/kg i.p., 30 minutes prior to formalin; FIG. 5
Procedure: The analgesic effect of test compounds was assessed in a mouse formalin pain model (Hole et al., 1993, Pain 53:247-254). Male NSA mice weighing between 27 and 30 g were housed with access to food and water ad libitum until the test date. On the day of testing, they were given a period of 1 h to adjust to the test chamber. Test compounds or vehicle control (75% polyethylene glycol in 5% dextrose+water) were administered i.p. at 30 minutes prior to the administration of formalin. A solution of 20 μl of 2.5% formalin was then injected subcutaneously into the dorsal side of the hind paw of the test mouse. Immediately following formalin injection, the mice were observed over the next 50 min and the time spent licking the injected hind paw was recorded. The observation time was broken down into 5 minute “bins”, with 10 bins in total. The first 5-min bin is the early phase, considered to be reflective of acute pain. Bins three to ten make up the late phase, considered a measure of chronic inflammatory pain. The results for the late phase are expressed as the averaged mean time (in seconds) that mice spent licking in a 5-min period.
Dose-response relationship was conducted in the range of 3 to 60 mg/kg. Statistical differences in response were determined by one-way analysis of variance with the Dunnett's post-hoc test by using the Prism3 statistical software (GraphPad, Inc., San Diego, Calif.).

[2] = system: human GABAA receptor subunits (α1β1-3γ2L GABAA receptors); assay: Modulation of GABA-evoked currents in Xenopus oocytes (2-electrode clamp), GABA subunit selectivity; assay type: cell-based; settings: for GABA subunit selectivity: modulation of GABA EC10-evoked currents in Xenopus oocytes expressing α1β1-3γ2L, FIGS. 4A and 4B
Procedure: GABA subunit selectivity of etifoxine enantiomers was measured based on their ability to modulate the GABA-evoked currents in Xenopus oocytes.
Receptor mRNA preparation: cDNA clones encoding human GABAA receptor subunits were obtained from commercial sources. mRNA was prepared using conventional techniques with commercially-available “mMessage machine” kits (Ambion). Individual mRNAs (˜1 μg/μL) were stored in aliquots at −80° C.
mRNA injections into Xenopus oocytes: Preparation and micro-injection of oocytes were performed as reported in detail previously (see, Whittemore et al., 1996, Mol Pharmacol 50: 1364-1375). Individual oocytes were injected with 5-50 ng of mRNA at 5:1:1 (GABA). For example, individual oocytes were injected with a 5:1:1 mixture of α1, β1-3, and γ2L (˜5-50 ng of each subunit per cell) to produce expression of α1β1-3γ2L GABAA receptors. Following injections, oocytes were maintained at 16-17° C. in Barth's medium containing (in mM): NaCl, 88; KCl, 1; CaCl2, 0.41; Ca(NO3)2, 0.33; MgSO4, 0.82; NaHCO3, 2.4; HEPES 5; pH=7.4, with 0.1 mg/ml gentamycin sulfate.
Oocyte Electrophysiological recordings: Individual oocytes were placed on a nylon mesh in a 35 mm dish, perfused with frog Ringer (see, Whittemore et al., supra), and voltage clamped at a holding potential of −70 mV. In some cases, simple voltage steps were made to test voltage-dependence. Oocytes were perfused with fresh Ringer or exposed to GABA ±modulators using a custom-made gravity-driven perfusion system consisting of a linear array of 3 capillary tubes. The concentration of GABA used to evoke control currents was adjusted for each individual oocyte to be 10% of the maximal current (EC10) measured in that cell. The concentration of GABA required to evoke EC10 ‘control’ currents varied between ˜2 and 12 μM. […] Data are expressed as % of control currents (% modulation=100*[(modulated current/GABA control current)−1].

Structure (SMILES) | analgesic effect in the formalin test (late phase licking) [1] | GABA subunit selectivity [2] | selectivity for β2 subunit versus β1 subunit ([2]; modulation of GABA EC10-evoked currents in Xenopus oocytes, FIG. 4B)
CCNC1=Nc2ccc(Cl)cc2C(C)(c2ccccc2)O1 (single isomer, unassigned) [R-etifoxine, 6-chloro-2-(ethylamino)-4-methyl-4-phenyl-4H-3,1-benzoxazine] | active | little or no GABA subunit selectivity | 
CCNC1=Nc2ccc(Cl)cc2C(C)(c2ccccc2)O1 (single isomer, unassigned) [S-etifoxine, 6-chloro-2-(ethylamino)-4-methyl-4-phenyl-4H-3,1-benzoxazine] |  | shows selectivity for GABA receptor comprising β subunit | more selective for β2 subunit than β1 subunit
